From ChEMBL document CHEMBL4251605, “2-Substituted 7-trifluoromethyl-thiadiazolopyrimidones as alkaline phosphatase inhibitors. Synthesis, structure activity relationship and molecular docking study” (Eur J Med Chem, 2018)

Experiments:
Assay type in all cases: cell-based
[1] = target: T1, Alkaline phosphatase, tissue-nonspecific isozyme (Homo sapiens, UniProt P05186); experiment: Inhibition of human TNAP expressed in COS7 cells preincubated for 5 to 7 mins followed by CDP-star substrate addition measured after 15 to 20 mins by luminescence assay
T1 sequence (P05186 whole entry): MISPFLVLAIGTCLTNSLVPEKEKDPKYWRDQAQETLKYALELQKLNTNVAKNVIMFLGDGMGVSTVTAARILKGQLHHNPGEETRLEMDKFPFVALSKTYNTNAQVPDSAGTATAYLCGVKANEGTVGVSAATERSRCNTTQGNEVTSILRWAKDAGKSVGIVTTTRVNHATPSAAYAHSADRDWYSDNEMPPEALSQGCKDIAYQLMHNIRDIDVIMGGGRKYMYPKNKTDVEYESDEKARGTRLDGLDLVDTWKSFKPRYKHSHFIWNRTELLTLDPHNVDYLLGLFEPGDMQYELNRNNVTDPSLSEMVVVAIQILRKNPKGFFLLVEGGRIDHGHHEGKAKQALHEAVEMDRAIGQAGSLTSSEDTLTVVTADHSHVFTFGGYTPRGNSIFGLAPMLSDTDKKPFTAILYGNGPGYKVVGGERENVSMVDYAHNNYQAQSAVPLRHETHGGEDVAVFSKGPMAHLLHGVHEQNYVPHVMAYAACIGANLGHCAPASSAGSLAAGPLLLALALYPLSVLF

[2] = target: Intestinal-type alkaline phosphatase (Homo sapiens, UniProt P09923); experiment: Inhibition of human IAP expressed in COS7 cells preincubated for 5 to 7 mins followed by CDP-star substrate addition measured after 15 to 20 mins by luminescence assay
Homo sapiens = species: Homo sapiens; experiment: Selectivity ratio of IC50 for human IAP expressed in COS7 cells to IC50 for human TNAP expressed in COS7 cells

Intestinal-type alkaline phosphatase, sequence (P09923 whole entry): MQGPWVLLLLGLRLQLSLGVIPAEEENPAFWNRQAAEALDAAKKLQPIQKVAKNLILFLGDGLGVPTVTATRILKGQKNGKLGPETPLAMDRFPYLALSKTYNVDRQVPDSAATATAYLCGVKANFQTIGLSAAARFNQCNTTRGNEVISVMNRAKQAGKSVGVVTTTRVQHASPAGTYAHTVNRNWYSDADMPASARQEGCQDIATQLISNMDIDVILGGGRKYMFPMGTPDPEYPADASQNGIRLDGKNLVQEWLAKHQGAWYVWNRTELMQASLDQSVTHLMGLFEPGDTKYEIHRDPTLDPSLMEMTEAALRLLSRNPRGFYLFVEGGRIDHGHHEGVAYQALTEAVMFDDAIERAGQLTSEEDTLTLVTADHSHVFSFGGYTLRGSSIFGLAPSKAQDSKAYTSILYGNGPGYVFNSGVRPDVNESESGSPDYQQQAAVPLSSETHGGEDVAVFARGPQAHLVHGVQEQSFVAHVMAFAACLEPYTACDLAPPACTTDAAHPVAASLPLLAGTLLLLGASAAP

Row | Structure (SMILES) | IC50 [1] [nM] | IC50 [2] [nM] | Ratio IC50 (Homo sapiens)
1 | O=c1cc(C(F)(F)F)nc2sc(-c3cccc([N+](=O)[O-])c3)nn12 | 620 | 480 | –
2 | CCOc1ccccc1-c1nn2c(=O)cc(C(F)(F)F)nc2s1 | 4520 | > 100000 | –
3 | O=c1cc(C(F)(F)F)nc2sc(-c3cccc(F)c3)nn12 | 1390 | 740 | –
4 | O=c1cc(C(F)(F)F)nc2sc(-c3ccc(OC(F)(F)F)cc3)nn12 | > 100000 | 240 | –
5 | O=c1cc(C(F)(F)F)nc2sc(-c3cccc(-c4ccccc4)c3)nn12 | 1120 | 1670 | –
6 | C=CCNc1nn2c(=O)cc(C(F)(F)F)nc2s1 | 290 | 890 | 3
7 | CCOc1ccc(Nc2nn3c(=O)cc(C(F)(F)F)nc3s2)cc1 | 1580 | 2020 | –
8 | N#Cc1cccc(-c2nn3c(=O)cc(C(F)(F)F)nc3s2)c1 | 560 | 1120 | –
9 | CCOc1ccc(-c2nn3c(=O)cc(C(F)(F)F)nc3s2)cc1 | 930 | 790 | –
10 | O=c1cc(C(F)(F)F)nc2sc(-c3ccccc3F)nn12 | > 100000 | > 100000 | –
11 | CCCCN(CCCC)c1nn2c(=O)cc(C(F)(F)F)nc2s1 | 1530 | 4630 | –
12 | CC(C)c1ccc(Nc2nn3c(=O)cc(C(F)(F)F)nc3s2)cc1 | 1980 | 31500 | –
13 | COc1cc(OC)cc(-c2nn3c(=O)cc(C(F)(F)F)nc3s2)c1 | 1150 | 760 | –
14 | Cc1cc(C)cc(-c2nn3c(=O)cc(C(F)(F)F)nc3s2)c1 | 520 | 460 | –
15 | CCCNc1nn2c(=O)cc(C(F)(F)F)nc2s1 | 1440 | 310 | –
16 | Nc1ccc(Nc2nn3c(=O)cc(C(F)(F)F)nc3s2)cc1 | 330 | 710 | –
17 | CN(C)CCNc1nn2c(=O)cc(C(F)(F)F)nc2s1 | 450 | 3750 | –
18 | N[C@@H](Cc1ccccc1)C(=O)O [PHENYLALANINE] | – | 80200 | –
19 | COc1ccccc1-c1nn2c(=O)cc(C(F)(F)F)nc2s1 | 3480 | > 100000 | –
20 | COc1cccc(Nc2nn3c(=O)cc(C(F)(F)F)nc3s2)c1 | 380 | 440 | –

The next lines start with results.

Row | IC50 [1] [nM] | IC50 [2] [nM] | Structure (SMILES) | Ratio IC50 (Homo sapiens)
21 | 540 | 1750 | Cc1ccc(-c2nn3c(=O)cc(C(F)(F)F)nc3s2)cc1C | –
22 | 880 | 710 | CCCCNc1nn2c(=O)cc(C(F)(F)F)nc2s1 | –
23 | 210 | 430 | O=c1cc(C(F)(F)F)nc2sc(-c3ccccc3)nn12 | –
24 | 1060 | 360 | Cc1ccc(-c2nn3c(=O)cc(C(F)(F)F)nc3s2)cc1 | –
25 | 520 | 680 | O=c1cc(C(F)(F)F)nc2sc(-c3cccc(C(F)(F)F)c3)nn12 | –
26 | 610 | 760 | CCCCCNc1nn2c(=O)cc(C(F)(F)F)nc2s1 | –
27 | > 100000 | 4550 | CCc1ccc(-c2nn3c(=O)cc(C(F)(F)F)nc3s2)cc1 | –
28 | 2020 | 2220 | CN(N)c1nn2c(=O)cc(C(F)(F)F)nc2s1 | –
29 | 280 | 480 | COc1ccc(-c2nn3c(=O)cc(C(F)(F)F)nc3s2)cc1 | –
